{
  "source": "ChEMBL document CHEMBL6071142",
  "about": "“Isoalantolactone/hydroxamic acid hybrids as potent dual STAT3/HDAC inhibitors and self-assembled nanoparticles for cancer therapy” (Eur J Med Chem, 2024)",
  "key": {"[1]": {"target": "T1, Signal transducer and activator of transcription 3 (Homo sapiens, UniProt P40763)", "T1 sequence (P40763 whole entry)": "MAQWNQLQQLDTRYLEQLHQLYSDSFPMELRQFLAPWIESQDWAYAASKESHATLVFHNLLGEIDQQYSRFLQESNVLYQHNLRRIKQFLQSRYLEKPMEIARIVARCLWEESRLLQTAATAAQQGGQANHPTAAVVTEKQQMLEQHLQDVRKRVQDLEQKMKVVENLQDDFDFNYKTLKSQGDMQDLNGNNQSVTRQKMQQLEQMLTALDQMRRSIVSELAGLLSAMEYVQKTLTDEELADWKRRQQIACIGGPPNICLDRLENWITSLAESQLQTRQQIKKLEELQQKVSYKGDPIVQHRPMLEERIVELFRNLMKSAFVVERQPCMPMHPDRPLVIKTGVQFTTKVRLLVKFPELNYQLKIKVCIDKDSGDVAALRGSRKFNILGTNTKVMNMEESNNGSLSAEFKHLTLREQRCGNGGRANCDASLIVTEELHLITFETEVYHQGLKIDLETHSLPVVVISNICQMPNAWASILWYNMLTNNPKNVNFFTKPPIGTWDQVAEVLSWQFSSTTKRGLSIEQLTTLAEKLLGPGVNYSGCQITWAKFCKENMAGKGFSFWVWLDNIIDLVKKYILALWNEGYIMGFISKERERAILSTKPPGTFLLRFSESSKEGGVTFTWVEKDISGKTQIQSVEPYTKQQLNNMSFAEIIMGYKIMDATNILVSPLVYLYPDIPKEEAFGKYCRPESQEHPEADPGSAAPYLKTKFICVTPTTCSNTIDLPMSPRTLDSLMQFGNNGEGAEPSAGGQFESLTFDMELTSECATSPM", "assay": "Binding affinity to recombinant human STAT3 using 5-FAM-G(pTyr)LPQTV-NH2 as substrate preincubated with compound for 1 hr followed by substrate addition and measured after 30 mins by fluorescent polarization based binding assay"}, "HepG2": {"system": "HepG2", "assay": "Antiproliferative activity against human HepG2 cells assessed as inhibition of cell proliferation incubated for 72 hrs by CCK-8 assay", "type": "functional, cell-based", "settings": "HepG2, 72 h"}, "A549 [2]": {"system": "A549", "assay": "Induction of apoptosis in human A549 cells assessed as viable cells at 2 uM incubated for 24 hrs by Annexin V-FITC/PI staining based flow cytometric analysis (reference value: 95.08%)", "type": "functional", "settings": "Homo sapiens, A549, read-out: Activity"}, "[3]": {"target": "T1, Signal transducer and activator of transcription 3", "assay": "Inhibition of STAT3 phosphorylation in human A549 cells at 0.1 to 8 uM incubated for 12 hrs by Western blot analysis", "type": "cell-based", "settings": "dose 0.1-8 µM"}, "Histone deacetylase 4": {"target": "Histone deacetylase 4 (Homo sapiens, UniProt P56524)", "sequence (P56524 whole entry)": "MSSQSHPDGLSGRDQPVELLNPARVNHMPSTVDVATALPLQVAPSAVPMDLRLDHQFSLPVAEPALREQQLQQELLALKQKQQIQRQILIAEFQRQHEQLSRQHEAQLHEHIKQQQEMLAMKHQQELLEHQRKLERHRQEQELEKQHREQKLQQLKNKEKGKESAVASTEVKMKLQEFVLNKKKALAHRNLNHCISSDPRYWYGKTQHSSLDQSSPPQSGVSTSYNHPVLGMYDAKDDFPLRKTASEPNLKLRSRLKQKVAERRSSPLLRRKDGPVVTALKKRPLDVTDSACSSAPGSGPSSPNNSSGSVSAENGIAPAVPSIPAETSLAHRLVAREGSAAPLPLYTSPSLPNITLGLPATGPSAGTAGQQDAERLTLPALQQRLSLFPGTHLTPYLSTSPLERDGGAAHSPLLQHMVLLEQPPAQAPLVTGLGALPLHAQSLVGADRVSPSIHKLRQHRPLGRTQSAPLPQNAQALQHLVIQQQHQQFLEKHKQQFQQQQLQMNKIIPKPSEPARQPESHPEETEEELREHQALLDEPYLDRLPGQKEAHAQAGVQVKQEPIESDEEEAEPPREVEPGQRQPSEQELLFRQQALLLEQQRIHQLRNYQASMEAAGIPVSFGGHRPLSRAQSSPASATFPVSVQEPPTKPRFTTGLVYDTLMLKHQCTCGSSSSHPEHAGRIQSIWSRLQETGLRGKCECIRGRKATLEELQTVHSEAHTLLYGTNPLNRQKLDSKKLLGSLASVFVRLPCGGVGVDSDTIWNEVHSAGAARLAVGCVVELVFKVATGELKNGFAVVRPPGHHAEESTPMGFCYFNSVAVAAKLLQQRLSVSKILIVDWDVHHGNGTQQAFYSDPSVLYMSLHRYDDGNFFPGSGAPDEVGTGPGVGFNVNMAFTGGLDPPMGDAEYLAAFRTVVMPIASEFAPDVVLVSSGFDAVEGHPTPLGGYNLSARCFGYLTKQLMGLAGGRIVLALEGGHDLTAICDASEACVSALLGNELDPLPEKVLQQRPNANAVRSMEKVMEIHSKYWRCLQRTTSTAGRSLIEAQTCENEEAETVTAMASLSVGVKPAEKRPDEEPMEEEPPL", "assay": "Inhibition of recombinant human HDAC4 using Boc-Lys (trifluroacetyl)-AMC as substrate preincubated with compound for 1 hr followed by substrate addition and measured after 30 mins by microplate reader assay"}, "A549 [4]": {"system": "A549", "assay": "Induction of apoptosis in human A549 cells assessed as viable cells at 4 uM incubated for 24 hrs by Annexin V-FITC/PI staining based flow cytometric analysis (reference value: 95.08%)", "type": "functional", "settings": "read-out: Activity"}, "HeLa": {"system": "HeLa", "assay": "Anticancer activity against human HeLa cells assessed as cell viability incubated for 72 hrs using self assembled nanoparticle as source of compound by CCK-8 assay", "type": "functional, cell-based"}, "A549 [5]": {"system": "A549", "assay": "Anticancer activity against human A549 cells assessed as cell viability incubated for 72 hrs using self assembled nanoparticle as source of compound by CCK-8 assay", "type": "functional, cell-based", "settings": "A549, 72 h"}, "[6]": {"target": "Signal transducer and activator of transcription 5A (Homo sapiens, UniProt P42229)", "sequence (P42229 whole entry)": "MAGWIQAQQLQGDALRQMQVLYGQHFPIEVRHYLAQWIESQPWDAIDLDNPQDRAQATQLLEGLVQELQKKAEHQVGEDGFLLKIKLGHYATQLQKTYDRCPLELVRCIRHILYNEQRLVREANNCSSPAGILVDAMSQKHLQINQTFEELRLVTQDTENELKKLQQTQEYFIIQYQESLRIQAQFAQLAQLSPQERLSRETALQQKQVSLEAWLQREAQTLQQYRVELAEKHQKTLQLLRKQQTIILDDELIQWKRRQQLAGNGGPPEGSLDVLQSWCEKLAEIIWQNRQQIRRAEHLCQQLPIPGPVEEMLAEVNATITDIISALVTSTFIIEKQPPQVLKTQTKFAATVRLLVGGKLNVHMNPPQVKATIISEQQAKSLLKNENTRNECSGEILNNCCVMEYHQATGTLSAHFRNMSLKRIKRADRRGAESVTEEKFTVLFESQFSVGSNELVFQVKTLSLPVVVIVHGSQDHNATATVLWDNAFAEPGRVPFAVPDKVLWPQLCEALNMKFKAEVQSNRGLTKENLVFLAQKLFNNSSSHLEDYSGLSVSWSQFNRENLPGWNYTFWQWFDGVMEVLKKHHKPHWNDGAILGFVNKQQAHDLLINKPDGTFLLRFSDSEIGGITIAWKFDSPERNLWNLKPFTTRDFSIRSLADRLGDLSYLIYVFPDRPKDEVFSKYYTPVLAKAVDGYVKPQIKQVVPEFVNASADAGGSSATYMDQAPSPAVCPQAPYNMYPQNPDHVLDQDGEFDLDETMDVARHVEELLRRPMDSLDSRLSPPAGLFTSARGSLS", "assay": "Binding affinity to STAT5A (unknown origin) assessed as dissociation constant by SPR assay"}, "A549 [7]": {"system": "A549", "assay": "Induction of autophagy in human A549 cells transfected with mRFP-GFP-LC3 assessed as increase in LC3-II protein level at 0.5 uM incubated for 12 hrs by Western blot analysis", "type": "functional, cell-based"}, "[8]": {"assay": "Biodistribution in liver of nude mouse xenografted with A549 cells at 5 mg/kg, iv using chlorine e6 loaded self-assembled nanoparticle as source of compound incubated for 24 hrs by ex-vivo fluorescence based LC-MS/MS analysis", "type": "ADME, organism-based"}, "A549 [9]": {"system": "A549", "assay": "In vivo antitumor activity against human A549 cells xenografted in female BALB/c nu/nu mouse assessed as tumor volume at 5 mg/kg, iv administered every 3 days and measured on 18 day relative to control", "type": "functional", "settings": "time 3 day"}, "[10]": {"assay": "Biodistribution in kidney of nude mouse xenografted with A549 cells at 5 mg/kg, iv using chlorine e6 loaded self-assembled nanoparticle as source of compound incubated for 24 hrs by ex-vivo fluorescence based LC-MS/MS analysis", "type": "ADME, organism-based"}, "[11]": {"target": "Signal transducer and activator of transcription 4 (Homo sapiens, UniProt Q14765)", "assay": "Binding affinity to STAT4 (unknown origin) assessed as dissociation constant by SPR assay"}, "A549 [12]": {"system": "A549", "assay": "Induction of autophagy in human A549 cells transfected with mRFP-GFP-LC3 assessed as increase in red puncta at 0.5 uM incubated for 24 hrs by confocal microscopic analysis", "type": "functional, cell-based"}, "A549 [13]": {"system": "A549", "assay": "In vivo antitumor activity against human A549 cells xenografted in female BALB/c nu/nu mouse assessed as tumor volume at 5 mg/kg, iv administered every 3 days using self assembled nanoparticle as source of compound and measured on 18 day relative to control", "type": "functional", "settings": "time 3 day"}, "A549 [14]": {"system": "A549", "assay": "Induction of apoptosis in human A549 cells assessed as decrease in BCL-2 protein level at 6 uM incubated for 12 hrs by Western blot analysis"}, "[15]": {"assay": "Toxicity in female BALB/c nu/nu mouse xenografted with human A549 cells assessed as effect on body weight at 2.5 mg/kg, iv and measured regularly", "type": "organism-based", "settings": "in vivo"}, "[16]": {"assay": "Toxicity in female BALB/c nu/nu mouse xenografted with human A549 cells assessed as effect on spleen at 5 mg/kg, iv by H and E staining based analysis", "type": "organism-based", "settings": "in vivo"}, "[17]": {"target": "Protein deacetylase HDAC6 (Homo sapiens) (UniProt Q9UBN7)", "sequence (Q9UBN7 whole entry)": "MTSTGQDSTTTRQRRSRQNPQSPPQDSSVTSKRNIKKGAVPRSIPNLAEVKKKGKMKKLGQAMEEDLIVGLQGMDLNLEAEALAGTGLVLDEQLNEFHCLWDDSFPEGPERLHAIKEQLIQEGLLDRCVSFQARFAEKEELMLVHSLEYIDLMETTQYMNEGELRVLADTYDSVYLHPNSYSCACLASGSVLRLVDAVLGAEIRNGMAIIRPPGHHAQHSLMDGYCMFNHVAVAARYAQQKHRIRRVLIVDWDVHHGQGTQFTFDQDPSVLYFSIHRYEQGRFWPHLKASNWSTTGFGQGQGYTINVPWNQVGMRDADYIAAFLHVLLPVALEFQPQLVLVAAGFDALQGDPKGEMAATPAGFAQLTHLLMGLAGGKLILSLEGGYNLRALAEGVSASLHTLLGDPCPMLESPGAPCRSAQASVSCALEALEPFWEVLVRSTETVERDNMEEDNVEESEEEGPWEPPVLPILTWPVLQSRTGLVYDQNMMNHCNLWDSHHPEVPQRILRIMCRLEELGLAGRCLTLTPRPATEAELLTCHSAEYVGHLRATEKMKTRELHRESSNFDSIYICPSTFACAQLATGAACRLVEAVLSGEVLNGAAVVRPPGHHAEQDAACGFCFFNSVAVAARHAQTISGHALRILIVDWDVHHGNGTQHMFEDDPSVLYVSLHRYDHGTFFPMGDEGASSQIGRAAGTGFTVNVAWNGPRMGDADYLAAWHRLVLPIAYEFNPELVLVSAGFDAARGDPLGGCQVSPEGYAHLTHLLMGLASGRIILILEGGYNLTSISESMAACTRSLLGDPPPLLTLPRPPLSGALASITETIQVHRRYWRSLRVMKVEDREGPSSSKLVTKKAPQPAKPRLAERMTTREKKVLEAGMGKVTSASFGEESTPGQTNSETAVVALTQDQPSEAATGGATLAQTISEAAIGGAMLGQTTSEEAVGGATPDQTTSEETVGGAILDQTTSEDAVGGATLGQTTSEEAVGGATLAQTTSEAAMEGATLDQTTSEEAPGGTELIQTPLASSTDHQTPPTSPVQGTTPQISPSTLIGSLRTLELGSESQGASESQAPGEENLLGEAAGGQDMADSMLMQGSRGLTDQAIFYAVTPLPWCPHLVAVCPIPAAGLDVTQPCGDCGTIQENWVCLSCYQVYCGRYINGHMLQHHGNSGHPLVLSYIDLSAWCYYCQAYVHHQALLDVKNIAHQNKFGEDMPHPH", "assay": "Inhibition of HDAC6 in human A549 cells assessed as increase in […] level at 0.5 uM incubated for 12 hrs by Western blot analysis", "type": "cell-based"}, "[18]": {"assay": "Drug uptake in human A549 cells assessed as increase in red fluorescence incubated for 4 hrs using chlorine e6 loaded self assembled nanoparticle as source of compound by fluorescence based flow cytometric analysis", "type": "ADME, cell-based", "settings": "a549, 4 h"}, "Histone deacetylase 2": {"target": "Histone deacetylase 2 (Homo sapiens, UniProt Q92769)", "assay": "Inhibition of recombinant human HDAC2 using Boc-Lys (acetyl)-AMC as substrate preincubated with compound for 1 hr followed by substrate addition and measured after 30 mins by microplate reader assay"}, "[19]": {"assay": "Toxicity in female BALB/c nu/nu mouse xenografted with human A549 cells assessed as effect on lung at 5 mg/kg, iv by H and E staining based analysis", "type": "organism-based", "settings": "in vivo"}, "Histone deacetylase 5": {"target": "Histone deacetylase 5 (Homo sapiens, UniProt Q9UQL6)", "assay": "Inhibition of recombinant human HDAC5 using Boc-Lys (trifluroacetyl)-AMC as substrate preincubated with compound for 1 hr followed by substrate addition and measured after 30 mins by microplate reader assay"}, "A549 [20]": {"system": "A549", "assay": "In vivo antitumor activity against human A549 cells xenografted in female BALB/c nu/nu mouse assessed as decrease in STAT3 phosphorylation level at 5 mg/kg, iv administered every 3 days for 9 days by Western blotting analysis", "type": "functional, organism-based", "settings": "time 3.0 day"}, "HCT-116": {"system": "HCT-116", "assay": "Anticancer activity against human HCT-116 cells assessed as cell viability incubated for 72 hrs using self assembled nanoparticle as source of compound by CCK-8 assay", "type": "functional, cell-based", "settings": "HCT-116, 72 h"}, "[21]": {"assay": "Toxicity in female BALB/c nu/nu mouse xenografted with human A549 cells assessed as effect on liver at 2.5 mg/kg, iv by H and E staining based analysis", "type": "organism-based", "settings": "in vivo"}, "Histone deacetylase 9": {"target": "Histone deacetylase 9 (Homo sapiens, UniProt Q9UKV0)", "sequence (Q9UKV0 whole entry)": "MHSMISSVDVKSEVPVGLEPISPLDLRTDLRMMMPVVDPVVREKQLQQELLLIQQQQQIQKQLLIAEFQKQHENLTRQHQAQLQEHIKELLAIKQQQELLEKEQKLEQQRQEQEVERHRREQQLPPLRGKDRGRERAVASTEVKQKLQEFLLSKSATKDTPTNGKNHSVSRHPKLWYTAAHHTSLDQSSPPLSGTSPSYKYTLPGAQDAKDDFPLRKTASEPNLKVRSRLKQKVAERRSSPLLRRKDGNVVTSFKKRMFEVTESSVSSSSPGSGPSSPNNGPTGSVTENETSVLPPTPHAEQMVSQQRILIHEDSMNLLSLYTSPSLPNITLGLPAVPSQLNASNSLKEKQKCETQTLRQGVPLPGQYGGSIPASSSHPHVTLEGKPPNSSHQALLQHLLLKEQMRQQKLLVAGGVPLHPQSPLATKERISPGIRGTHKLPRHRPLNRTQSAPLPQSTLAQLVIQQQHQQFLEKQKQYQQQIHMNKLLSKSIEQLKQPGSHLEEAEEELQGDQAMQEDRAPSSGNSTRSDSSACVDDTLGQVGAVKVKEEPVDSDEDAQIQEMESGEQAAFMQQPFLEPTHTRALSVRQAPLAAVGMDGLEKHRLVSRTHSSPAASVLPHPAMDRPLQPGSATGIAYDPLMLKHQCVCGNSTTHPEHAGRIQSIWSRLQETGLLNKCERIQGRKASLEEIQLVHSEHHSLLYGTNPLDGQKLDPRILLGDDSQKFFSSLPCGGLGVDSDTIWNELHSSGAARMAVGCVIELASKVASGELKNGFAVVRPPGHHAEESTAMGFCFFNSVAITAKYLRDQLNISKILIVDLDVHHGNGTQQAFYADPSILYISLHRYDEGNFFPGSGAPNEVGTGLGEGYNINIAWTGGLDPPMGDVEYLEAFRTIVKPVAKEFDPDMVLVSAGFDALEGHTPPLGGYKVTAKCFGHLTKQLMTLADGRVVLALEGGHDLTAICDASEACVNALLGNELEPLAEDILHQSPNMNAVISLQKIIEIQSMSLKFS", "assay": "Inhibition of recombinant human HDAC9 using Boc-Lys (trifluroacetyl)-AMC as substrate preincubated with compound for 1 hr followed by substrate addition and measured after 30 mins by microplate reader assay"}, "[22]": {"assay": "Toxicity in female BALB/c nu/nu mouse xenografted with human A549 cells assessed as effect on kidney at 5 mg/kg, iv by H and E staining based analysis", "type": "organism-based", "settings": "in vivo"}, "A549 [23]": {"system": "A549", "assay": "In vivo antitumor activity against human A549 cells xenografted in female BALB/c nu/nu mouse assessed as tumor volume at 2.5 mg/kg, iv administered every 3 days and measured on 18 day relative to control", "type": "functional", "settings": "time 3 day"}, "[24]": {"assay": "Drug uptake in tumor of nude mouse xenografted with A549 cells assessed as accumulation of tumor tissues at 5 mg/kg, iv using self assembled nanoparticle as source of compound by LC-MS/MS analysis", "type": "ADME, organism-based", "settings": "in vivo"}},
  "note": "The source made the active and inactive calls. No cut-off for these calls is given here.",
  "data": [
    {"compound": "C=C1C(=O)O[C@@H]2C[C@@]3(C)CC[C@@H](OC(=O)[C@H](C)NC(=O)c4ccc(/C=C/C(=O)NO)cc4)C(=C)[C@@H]3C[C@H]12", "values": [
      {"measurement": "IC50", "setting": "[1]", "value": 350, "unit": "nM"},
      {"measurement": "Activity", "setting": "[1]; time 1.5 hrs", "value": "Dose-Dependent Effect"},
      {"measurement": "IC50", "setting": "HepG2", "value": 260, "unit": "nM"},
      {"measurement": "viability at 2 µM", "setting": "A549 [2]", "value": 82.5, "unit": "%"},
      {"measurement": "inhibition", "setting": "[3]", "value": "Active"},
      {"measurement": "IC50", "setting": "Histone deacetylase 4", "value": "> 10000", "unit": "nM"},
      {"measurement": "viability at 4 µM", "setting": "A549 [4]", "value": 56.2, "unit": "%"},
      {"measurement": "IC50", "setting": "HeLa", "value": 72, "unit": "nM"},
      {"measurement": "IC50", "setting": "A549 [5]", "value": 69, "unit": "nM"},
      {"measurement": "Kd", "setting": "[6]", "value": "Not Active"},
      {"measurement": "Activity", "setting": "A549 [7]", "value": "Active"},
      {"measurement": "Drug uptake", "setting": "[8]", "value": "Active"},
      {"measurement": "Activity", "setting": "A549 [9]", "value": 47.3, "unit": "%"},
      {"measurement": "Drug uptake", "setting": "[10]", "value": "Active"},
      {"measurement": "Kd", "setting": "[11]", "value": "Not Active"},
      {"measurement": "Activity", "setting": "A549 [12]", "value": "Active"},
      {"measurement": "Activity", "setting": "A549 [13]", "value": 19.9, "unit": "%"},
      {"measurement": "Activity", "setting": "A549 [14]", "value": "Active"},
      {"measurement": "Activity", "setting": "[15]", "value": "Non-Toxic"},
      {"measurement": "Activity", "setting": "[16]", "value": "Non-Toxic"},
      {"measurement": "inhibition", "setting": "[17]", "value": "Active"},
      {"measurement": "Drug uptake", "setting": "[18]", "value": "Active"},
      {"measurement": "IC50", "setting": "Histone deacetylase 2", "value": 52.6, "unit": "nM"},
      {"measurement": "Activity", "setting": "[19]", "value": "Non-Toxic"},
      {"measurement": "IC50", "setting": "Histone deacetylase 5", "value": "> 10000", "unit": "nM"},
      {"measurement": "Activity", "setting": "A549 [20]", "value": "Active"},
      {"measurement": "IC50", "setting": "HCT-116", "value": 23, "unit": "nM"},
      {"measurement": "Activity", "setting": "[21]", "value": "Non-Toxic"},
      {"measurement": "IC50", "setting": "Histone deacetylase 9", "value": "> 10000", "unit": "nM"},
      {"measurement": "Activity", "setting": "[22]", "value": "Non-Toxic"},
      {"measurement": "Activity", "setting": "A549 [23]", "value": 70.7, "unit": "%"},
      {"measurement": "Drug uptake", "setting": "[24]", "value": "Active"}
    ]}
  ]
}
